Test results reported in paper PMC10210221, “Interaction of Pexiganan (MSI-78)-Derived Analogues Reduces Inflammation and TLR4-Mediated Cytokine Secretion: A Comparative Study” (ACS Omega, 2023).
Converted amounts (≈) assume the structure as drawn. Where a SMILES comes first, the peptide text is derived from it. Where no end group is shown, it is not given here. [ ]: non-standard residue; d: D form.

What was measured:
E. coli ATCC 35218 = type: cell-based, Escherichia coli; conditions: ATCC 35218, 18 h
Description: (§1) The peptide’s minimal inhibitory concentration (MIC) was examined as previously described.[44] In brief, sterile 96-well U-bottom polystyrene plates were used to evaluate peptide activity. Bacterial cells including S. Typhi ATCC 14028s, E. coli ATCC 35218, S. aureus ATCC P8538, and Lactobacilli ATCC 25258 were cultured in Mueller Hinton broth (MHB) at 37 °C overnight. The cells were then washed, centrifuged, and re-suspended in MHB medium. Afterward, 50 μL aliquots of suspended bacteria (1 × 10^6 colony forming units, CFU mL^–1) were added to 50 μL BM2 medium, which contained peptides in serial twofold dilutions. The plates were then incubated at 37 °C for 18 h. The inhibition of growth was determined by measuring the absorbance at 600 nm using a microplate autoreader. The MIC was defined as the concentration at which 90% growth inhibition was observed after 18 h of incubation.

S. Typhi ATCC 14028s = type: cell-based, Salmonella Typhi; conditions: ATCC 14028, 18 h
Description: as §1

[1] = XTT cytotoxicity / LD50 calculation; type: cell-based, murine; conditions: mouse, RAW 264.7 cells (macrophages); peptides 2 h, then XTT 2 h; concentration at which 50% of cells were dead, from linear graph
Description: (§2) LD50 is the calculated amount of chemical that causes the death of 50% of the population tested, in this case, RAW 264.7. Each well was seeded with 1 × 10^5 cells 1 day before the experiment. Peptides were added in several doses and incubated with the cells for 2 h, followed by 2 h of XTT. We performed a linear graph and calculated the concentration in which 50% were dead.
(§3) DMEM supplemented with low endotoxin FBS (10%), L-glutamine (1%), sodium pyruvate (1%), pen–strep (1%), and unessential amino acids (1%) was used to grow RAW 264.7 cells at 37 °C in a humidified atmosphere containing 5% CO2 and 95% air. A 96-well Falcon plate was utilized for the assay, with each well containing 1 × 10^5 cells in a 200 μL medium, cultured overnight and washed with phosphate-buffered saline (PBS) before the experiment. Peptides were added to the wells at various concentrations for 2 h, followed by XTT with fresh medium for another 2 h. The optical density was measured at 450 nm using an enzyme-linked immunosorbent assay plate reader, and cell viability was determined relative to the control.

pig erythrocytes = type: cell-based; conditions: pH 7.3
Description: To examine the hemolytic properties of the peptides, a concentration of 100 μM was used. A 4% suspension of pig erythrocytes, freshly collected and washed three times in phosphate-buffered saline (PBS, pH 7.3), was used for this purpose. After incubation at 37 °C for 1 h, the suspension was centrifuged at 800g for 10 min, and the absorbance at 540 nm was measured. Complete hemolysis was determined by adding 1% Triton X-100, while adding only PBS was used to determine 0% hemolysis.The hemolysis calculation was as follows: % hemolysis = (ODPeptide – ODBuffer)/(ODTriton1% – ODBuffer) × 100.

S. aureus ATCC P8538 = type: cell-based, Staphylococcus aureus; conditions: ATCC P8538, 18 h
Description: as §1

Lactobacilli ATCC 25258 = type: cell-based; conditions: ATCC 25258, 18 h
Description: as §1

RAW 264.7 cells = experiment: XTT cytotoxicity / LD50 calculation; type: cell-based, murine; conditions: XTT, RAW 264.7 macrophages
Description: as §2, §3

| Compound | MIC E. coli ATCC 35218 (E. coli ATCC 35218) [µM] | MIC S. Typhi ATCC 14028s (S. Typhi ATCC 14028s) [µM] | CC50 at 2 h [1] [µM] | % hemolysis (100 μM) (pig erythrocytes) [%] | MIC S. aureus ATCC P8538 (S. aureus ATCC P8538) [µM] | MIC Lactobacilli ATCC 25258 (Lactobacilli ATCC 25258) [µM] | Concentration toxic to RAW 264.7 cells (RAW 264.7 cells) [µM] |
| --- | --- | --- | --- | --- | --- | --- | --- |
| CC[C@H](C)[C@H](NC(=O)CNC(=O)[C@H](CCCCN)NC(=O)[C@H](CCCCN)NC(=O)[C@H](CCCCN)NC(=O)[C@H](CCCCN)NC(=O)[C@@H](N)CCCCN)C(=O)NCC(=O)N[C@H](Cc1ccccc1)C(=O)N[C@@H](CC(C)C)C(=O)N[C@@H](C)C(=O)N[C@H](Cc1ccccc1)C(=O)NCC(=O)N[C@@H](C)C(=O)N[C@@H](Cc1ccccc1)C(=O)N[C@H](C(=O)N[C@H](C(=O)N[C@@H](CC(C)C)C(=O)N[C@@H](CCCCN)C(=O)N[C@@H](CCCCN)C(=O)N[C@@H](CCCCN)C(=O)N[C@@H](CCCCN)C(N)=O)[C@@H](C)CC)C(C)C [MSI-Seg-F2F] (H-KKKKKGIG[dF]LA[dF]GAFVILKKKK-NH2) | 12.5 (≈ 31 µg/mL) | 25 (≈ 61.9 µg/mL) | > 100 | 8.1 ± 3.2 | 12.5 (≈ 31 µg/mL) | 12.5 (≈ 31 µg/mL) | – |
| GIGKFLKKAKKFGKAFVKILKK-NH2 [MSI-78, Pexiganan] | 3.12 | 12.5 | 43.1 | 15.2 ± 1.1 | 6.25 | 1.56 | 40 |
| KKKKKFIGLFAGGIVLAFKKKK-NH2 [MSI-Seg-Scr] | 12.5 | 25 | > 100 | 3.9 ± 1.4 | 12.5 | 12.5 | – |
| KKKKKGIGFLAFGAFVILKKKK-NH2 [MSI-Seg] | 12.5 | 25 | > 100 | 16.6 ± 4.2 | 12.5 | >50 | – |
| KKKKKGIGGLAGGAFVILKKKK-NH2 [MSI-Seg-F2G] | >50 | >50 | > 100 | 1.2 ± 30.2 | 25 | >50 | – |
| KKKKKKKGIGFLAFGAFVKILK-NH2 [MSI-N7K] | 25 | 25 | 60.9 | 10 ± 5.6 | 25 | 25 | 60 |
